Reference: paper PMC7259758 (PLoS ONE, 2020)

How the values were obtained:
[1] = tested on: RBM39 pre-mRNA splicing in Rh18 cells; assay: RT-PCR confirmation of splicing changes, RBM39; assay type: cell-based; conditions: 4 h, compound 1 10 μM, compound 2 5 μM
Procedure: (§1) RH-18 cells were cultured in RPMI 1640 medium containing 10% FCS. Cells are all maintained in humidified incubator with 5% CO2 at 37°C. Rh18 cells were exposed to 0.5% DMSO or SD6 10 μM, Cpd1 10 μM, Cpd2 5 μM or Cpd3 10 μM for 4 h. Total RNA was extracted and converted to cDNA. PCR was performed using NEB Q5 Master Mix and specific primers listed below (Table 2) according to the manufacturer’s instruction and standard PCR protocols: 50 ng cDNA and 30 μl of the final reaction volume was used. PCR products were subjected to 3% agarose gel electrophoresis.
(§2) AS patterns were identified with compound treatment for MDM2 and RBM39 transcripts. Ubiquitin (UBQ) transcripts were used as a control since these are not spliced. […] Rh18 cells were treated with either DMSO control or compounds for 4 h. Total RNA was extracted and converted to cDNA. PCR was performed using corresponding primers and PCR products were subjected to 3% agarose gel electrophoresis.

SF3B1 = molecular target: T1, SF3B1 (Homo sapiens, UniProt O75533+Q7RTV0); assay: Competitive antagonist assay (TESLR in the presence of SD6 or hit compound); assay type: cell-based; conditions: 6 μM compound for one hour, then serial dilutions of sudemycinol C for another 4 hours
T1 construct: endogenous in cells
Procedure: SK-MEL-2/Luc-MDM2 stable cells were plated at a density of 20,000 cells/well in 96-well plates and incubated overnight at 37°C in 5% CO2.[27, 28] The following day, cells were treated with 14 analogs using serial dilution for one hour. The list of compounds screened as potential TESLR antagonists are show in SI file. After one-hour pre-treatment, 4 μM of SD6 were added to the pre-treated cells for another 4 hours. Either 0.5% DMSO or serial dilutions of SD6 were used to treat cells for 4 hours as controls. At the end of incubation time, ONE-Glo™ EX reagents (Promega) were added to measure the luciferase activity. […]
Fig 6 Competitive antagonist assay. (Left Panel) The assay that identified two antagonists of SD6 activity in the TESLR screen, which are useful for the determination of SF3B1 binding. Relative luminescent units were plotted against corresponding drug concentrations and fitted with a standard four parameter sigmoidal curve with GraphPad Prism. (Right Panel) The structures of the antagonists and SD6. See SI for chemistry details.
. SK-MEL-2/Luc-MDM2 stable cells were plated at a density of 20000/well in 96-well plates and incubated overnight at 37°C in 5% CO2. […]. After one-hour pre-treatment, serial dilutions of the sudemycinol C were added to the pre-treated cells for another 4 hours. […]. At the end of incubation time, ONE-Glo™ EX reagents (Promega) were added to measure the luciferase activity. […]. DR: dose response.

[2] = tested on: MDM2 pre-mRNA splicing in Rh18 cells; assay: RT-PCR confirmation of splicing changes, MDM2; assay type: cell-based; conditions: 4 h, SD6 10 μM, compound 1 10 μM, compound 2 5 μM, compound 3 10 μM
Procedure: as §1, §2

CLK1(h) = molecular target: T2, CLK1(h) (Homo sapiens, UniProt P49759); assay: Radiometric protein kinase assay (Eurofins); assay type: biochemical; conditions: ATP 10 μM
T2 construct: purchased Eurofins, Dundee, Scotland
T2 sequence (P49759 whole entry): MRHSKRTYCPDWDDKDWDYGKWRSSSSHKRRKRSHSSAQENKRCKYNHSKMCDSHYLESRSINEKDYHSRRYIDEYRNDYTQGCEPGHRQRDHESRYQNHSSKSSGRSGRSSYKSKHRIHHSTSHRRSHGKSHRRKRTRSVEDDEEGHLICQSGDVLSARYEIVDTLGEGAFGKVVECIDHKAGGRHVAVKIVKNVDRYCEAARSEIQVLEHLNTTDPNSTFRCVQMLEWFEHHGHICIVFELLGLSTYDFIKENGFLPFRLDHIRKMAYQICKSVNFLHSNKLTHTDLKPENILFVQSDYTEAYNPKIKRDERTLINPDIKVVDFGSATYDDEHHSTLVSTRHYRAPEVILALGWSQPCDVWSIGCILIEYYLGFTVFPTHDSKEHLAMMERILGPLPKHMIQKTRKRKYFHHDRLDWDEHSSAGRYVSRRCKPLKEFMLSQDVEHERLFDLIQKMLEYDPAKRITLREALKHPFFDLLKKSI
Procedure: (§3) Enzymatic biochemical activities were evaluated in radiometric protein kinase assays (Eurofins, Dundee, Scotland). Kinases are incubated with buffer, substrate and [γ-^33P]-ATP (specific activity approx. 500 cpm/pmol, concentration as required). The reaction is initiated by the addition of the MgATP mix. After incubation for 40 minutes at room temperature, the reaction is stopped by the addition of 3% phosphoric acid solution. 10 μL of the reaction is then spotted onto a P30 filtermat and washed three times for 5 minutes in 75 mM phosphoric acid and once in methanol prior to drying and scintillation counting. All compounds are prepared to 50x final assay concentration in 100% DMSO. Positive control wells contain all components of the reaction with 2% DMSO. Blank wells contain all components of the reaction, with a reference inhibitor replacing the compound of interest. Each kinase is assigned a standard assay concentration of ATP within 20 μM of its apparent Km. Compounds were screened at 1 μM in duplicate or tested at 10 concentrations at half log dilution starting from 10 μM in singlicate. Dose response curves were fitted with four parameter logistic curve to obtain IC50 values. […]
(§4) Staurosporine is used as reference for all tested enzymes except for SRPK3 (reference inhibitor: K-252a. Nocardiopsis sp), NEK2 (reference inhibitor: […]), and CK2, CK2α2, MAPK1, MAPK2 (reference inhibitor: PKR Inhibitor). See Table 1 below for additional details.

SRPK1(h) = molecular target: T3, SRPK1(h) (Homo sapiens, UniProt Q96SB4); assay: Radiometric protein kinase assay (Eurofins); assay type: biochemical; conditions: ATP 10 μM
T3 construct: purchased Eurofins, Dundee, Scotland
T3 sequence (Q96SB4 whole entry): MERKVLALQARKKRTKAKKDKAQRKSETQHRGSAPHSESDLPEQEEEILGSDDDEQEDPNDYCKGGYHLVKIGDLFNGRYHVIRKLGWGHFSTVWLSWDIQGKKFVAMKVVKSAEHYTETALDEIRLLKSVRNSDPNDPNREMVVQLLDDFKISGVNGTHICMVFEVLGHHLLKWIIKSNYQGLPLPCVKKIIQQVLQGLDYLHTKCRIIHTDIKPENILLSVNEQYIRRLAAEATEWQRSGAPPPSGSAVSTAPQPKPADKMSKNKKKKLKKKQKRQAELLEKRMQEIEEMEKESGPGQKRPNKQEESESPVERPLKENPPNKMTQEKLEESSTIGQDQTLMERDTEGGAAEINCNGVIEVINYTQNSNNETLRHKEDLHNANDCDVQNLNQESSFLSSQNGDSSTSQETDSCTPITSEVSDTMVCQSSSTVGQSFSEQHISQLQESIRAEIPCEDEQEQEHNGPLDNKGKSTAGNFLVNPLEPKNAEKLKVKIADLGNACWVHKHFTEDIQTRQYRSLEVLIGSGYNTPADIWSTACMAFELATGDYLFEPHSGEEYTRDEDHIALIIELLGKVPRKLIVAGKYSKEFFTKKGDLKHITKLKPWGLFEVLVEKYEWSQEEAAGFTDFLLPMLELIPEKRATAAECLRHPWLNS
Procedure: as §3, §4

CK2α2 (h) = molecular target: T4, CK2α2 (h) (Homo sapiens, UniProt P19784); assay: Radiometric protein kinase assay (Eurofins); assay type: biochemical; conditions: 40 min; ATP 10 μM; read-out: CK2a2 IC50
T4 construct: purchased Eurofins, Dundee, Scotland
T4 sequence (P19784 whole entry): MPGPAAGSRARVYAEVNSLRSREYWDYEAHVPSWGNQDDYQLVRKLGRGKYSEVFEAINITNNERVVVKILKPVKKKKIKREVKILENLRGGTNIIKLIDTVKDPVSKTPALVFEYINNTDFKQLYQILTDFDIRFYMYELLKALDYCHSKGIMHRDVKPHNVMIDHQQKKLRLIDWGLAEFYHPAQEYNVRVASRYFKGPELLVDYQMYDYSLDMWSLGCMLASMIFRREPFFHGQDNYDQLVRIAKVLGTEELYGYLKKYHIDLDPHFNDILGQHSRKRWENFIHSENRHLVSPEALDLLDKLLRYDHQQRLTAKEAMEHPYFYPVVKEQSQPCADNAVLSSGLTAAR
Procedure: as §3, §4

MAPK1 (h) = molecular target: T5, MAPK1 (h) (Homo sapiens, UniProt P27361); assay: Radiometric protein kinase assay (Eurofins); assay type: biochemical; conditions: 40 min; read-out: MAPK1 IC50
T5 construct: purchased Eurofins, Dundee, Scotland
T5 sequence (P27361 whole entry): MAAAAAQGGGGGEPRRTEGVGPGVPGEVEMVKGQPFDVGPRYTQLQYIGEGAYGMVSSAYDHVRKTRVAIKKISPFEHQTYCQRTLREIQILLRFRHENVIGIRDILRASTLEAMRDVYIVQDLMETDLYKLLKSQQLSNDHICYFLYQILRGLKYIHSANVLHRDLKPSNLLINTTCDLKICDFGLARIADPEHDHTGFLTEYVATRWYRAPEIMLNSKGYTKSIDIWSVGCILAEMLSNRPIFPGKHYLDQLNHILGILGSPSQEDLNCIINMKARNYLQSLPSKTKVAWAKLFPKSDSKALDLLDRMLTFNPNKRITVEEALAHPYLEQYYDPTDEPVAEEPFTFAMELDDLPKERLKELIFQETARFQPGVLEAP
Procedure: as §3, §4

SRPK3 (h) = molecular target: T6, SRPK3 (h) (Homo sapiens, UniProt Q9UPE1); assay: Radiometric protein kinase assay (Eurofins); assay type: biochemical; conditions: ATP 15 μM
T6 construct: purchased Eurofins, Dundee, Scotland
T6 sequence (Q9UPE1 whole entry): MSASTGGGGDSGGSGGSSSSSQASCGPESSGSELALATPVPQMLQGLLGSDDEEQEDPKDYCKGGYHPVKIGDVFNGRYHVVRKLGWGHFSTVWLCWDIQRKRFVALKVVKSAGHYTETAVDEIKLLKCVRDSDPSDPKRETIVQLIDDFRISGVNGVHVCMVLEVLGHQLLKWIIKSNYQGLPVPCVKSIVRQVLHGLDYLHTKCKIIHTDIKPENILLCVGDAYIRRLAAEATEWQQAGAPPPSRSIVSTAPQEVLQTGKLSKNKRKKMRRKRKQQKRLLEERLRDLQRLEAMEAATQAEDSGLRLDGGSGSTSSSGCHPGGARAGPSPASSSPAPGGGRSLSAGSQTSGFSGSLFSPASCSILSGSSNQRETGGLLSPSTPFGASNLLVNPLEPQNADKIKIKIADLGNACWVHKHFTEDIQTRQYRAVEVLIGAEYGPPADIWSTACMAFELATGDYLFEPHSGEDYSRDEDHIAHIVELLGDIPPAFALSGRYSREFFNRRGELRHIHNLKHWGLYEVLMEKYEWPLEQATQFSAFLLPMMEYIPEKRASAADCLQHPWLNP
Procedure: as §3, §4

MAPK2 (h) = molecular target: T7, MAPK2 (h) (Homo sapiens, UniProt P28482); assay: Radiometric protein kinase assay (Eurofins); assay type: biochemical; conditions: 40 min; ATP 155 μM; read-out: MAPK2 IC50
T7 construct: purchased Eurofins, Dundee, Scotland
T7 sequence (P28482 whole entry): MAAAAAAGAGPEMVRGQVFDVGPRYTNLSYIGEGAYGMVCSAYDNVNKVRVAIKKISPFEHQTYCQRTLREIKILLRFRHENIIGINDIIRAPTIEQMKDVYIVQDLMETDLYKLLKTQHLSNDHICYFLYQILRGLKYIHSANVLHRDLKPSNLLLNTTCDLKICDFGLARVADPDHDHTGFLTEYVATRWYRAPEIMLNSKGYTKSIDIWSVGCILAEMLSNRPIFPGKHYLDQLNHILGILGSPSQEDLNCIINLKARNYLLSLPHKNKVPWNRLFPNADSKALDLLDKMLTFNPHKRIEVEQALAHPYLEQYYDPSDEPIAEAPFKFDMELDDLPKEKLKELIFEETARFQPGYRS
Procedure: as §3, §4

GSK3α(h) = molecular target: T8, GSK3α(h) (Homo sapiens, UniProt P49840); assay: Radiometric protein kinase assay (Eurofins); assay type: biochemical; conditions: 40 min; ATP 10 μM; read-out: GSK3α(h) IC50
T8 construct: purchased Eurofins, Dundee, Scotland
T8 sequence (P49840 whole entry): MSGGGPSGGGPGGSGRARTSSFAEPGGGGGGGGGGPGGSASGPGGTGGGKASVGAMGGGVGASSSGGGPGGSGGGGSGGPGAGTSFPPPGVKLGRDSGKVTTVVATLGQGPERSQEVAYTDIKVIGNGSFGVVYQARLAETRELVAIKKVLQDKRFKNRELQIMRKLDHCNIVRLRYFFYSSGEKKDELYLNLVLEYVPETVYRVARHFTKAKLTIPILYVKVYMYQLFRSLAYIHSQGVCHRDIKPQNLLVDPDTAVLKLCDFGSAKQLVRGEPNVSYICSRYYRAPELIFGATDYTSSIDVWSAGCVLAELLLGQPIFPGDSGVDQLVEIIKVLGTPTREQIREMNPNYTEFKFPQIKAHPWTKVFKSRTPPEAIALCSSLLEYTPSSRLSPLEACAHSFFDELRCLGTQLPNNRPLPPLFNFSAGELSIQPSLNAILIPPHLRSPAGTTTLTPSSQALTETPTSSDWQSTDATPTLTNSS
Procedure: as §3, §4

DYRK1A(h) = molecular target: T9, DYRK1A(h) (Homo sapiens, UniProt Q13627); assay: Radiometric protein kinase assay (Eurofins); assay type: biochemical; conditions: ATP 45 μM
T9 construct: purchased Eurofins, Dundee, Scotland
Procedure: as §3, §4

SRPK2 (h) = molecular target: T10, SRPK2 (h) (Homo sapiens, UniProt P78362); assay: Radiometric protein kinase assay (Eurofins); assay type: biochemical; conditions: 40 min; ATP 10 μM; read-out: SRPK2 IC50
T10 construct: purchased Eurofins, Dundee, Scotland
Procedure: as §3, §4

CLK2(h) = molecular target: T11, CLK2(h) (Homo sapiens, UniProt P49760); assay: Radiometric protein kinase assay (Eurofins); assay type: biochemical; conditions: ATP 10 μM
T11 construct: purchased Eurofins, Dundee, Scotland
T11 sequence (P49760 whole entry): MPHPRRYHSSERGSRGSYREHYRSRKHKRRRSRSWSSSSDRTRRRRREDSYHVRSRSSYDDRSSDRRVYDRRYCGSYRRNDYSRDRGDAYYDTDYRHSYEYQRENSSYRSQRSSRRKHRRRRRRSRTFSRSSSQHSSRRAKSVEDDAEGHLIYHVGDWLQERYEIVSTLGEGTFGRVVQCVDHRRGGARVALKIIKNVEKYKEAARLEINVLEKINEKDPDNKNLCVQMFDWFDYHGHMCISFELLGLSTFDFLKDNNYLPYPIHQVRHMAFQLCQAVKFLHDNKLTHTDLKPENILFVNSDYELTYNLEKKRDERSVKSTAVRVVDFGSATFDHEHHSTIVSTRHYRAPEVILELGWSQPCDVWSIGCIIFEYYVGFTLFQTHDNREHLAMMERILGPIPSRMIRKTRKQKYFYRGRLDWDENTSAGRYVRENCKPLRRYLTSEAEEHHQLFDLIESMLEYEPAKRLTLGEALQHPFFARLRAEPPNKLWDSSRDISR

FAK (h) = molecular target: T12, FAK (h) (Homo sapiens, UniProt Q05397); assay: Radiometric protein kinase assay (Eurofins); assay type: biochemical; conditions: 40 min; ATP 70 μM; read-out: FAK IC50
T12 construct: purchased Eurofins, Dundee, Scotland
T12 sequence (Q05397 whole entry): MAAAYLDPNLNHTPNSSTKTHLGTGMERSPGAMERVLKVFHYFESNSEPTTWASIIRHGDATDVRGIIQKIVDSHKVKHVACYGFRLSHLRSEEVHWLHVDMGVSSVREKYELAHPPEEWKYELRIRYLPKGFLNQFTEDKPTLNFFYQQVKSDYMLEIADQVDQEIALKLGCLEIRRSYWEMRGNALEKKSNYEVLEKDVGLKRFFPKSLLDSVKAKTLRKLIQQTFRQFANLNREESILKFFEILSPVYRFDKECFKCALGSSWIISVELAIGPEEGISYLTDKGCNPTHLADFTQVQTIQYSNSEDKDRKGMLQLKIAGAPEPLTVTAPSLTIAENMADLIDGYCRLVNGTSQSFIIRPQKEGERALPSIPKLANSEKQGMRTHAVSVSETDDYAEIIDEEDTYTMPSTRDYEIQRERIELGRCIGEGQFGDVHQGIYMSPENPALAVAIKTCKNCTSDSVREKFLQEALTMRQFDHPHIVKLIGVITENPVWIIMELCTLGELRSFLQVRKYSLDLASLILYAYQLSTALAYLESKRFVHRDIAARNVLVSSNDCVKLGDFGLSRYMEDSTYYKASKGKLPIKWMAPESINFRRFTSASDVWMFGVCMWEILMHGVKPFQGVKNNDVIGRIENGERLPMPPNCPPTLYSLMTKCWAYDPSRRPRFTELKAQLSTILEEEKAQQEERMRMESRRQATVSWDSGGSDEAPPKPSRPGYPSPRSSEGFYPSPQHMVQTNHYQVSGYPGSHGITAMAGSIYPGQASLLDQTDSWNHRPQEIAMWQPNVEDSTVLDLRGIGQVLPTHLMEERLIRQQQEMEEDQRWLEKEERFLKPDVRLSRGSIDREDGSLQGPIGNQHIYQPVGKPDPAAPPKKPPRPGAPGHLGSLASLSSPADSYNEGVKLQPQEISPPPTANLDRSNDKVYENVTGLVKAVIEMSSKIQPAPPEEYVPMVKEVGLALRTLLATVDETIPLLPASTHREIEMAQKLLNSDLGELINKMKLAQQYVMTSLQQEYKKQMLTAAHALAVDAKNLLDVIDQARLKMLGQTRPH

[3] = tested on: phosphorylation of SR proteins; assay: Western blot of nuclear extracts, phosphor-SR proteins; conditions: HCT116 and Rh18 cells, 4 h; SD6 10 μM, compound 1 10 μM, compound 2 5 μM, compound 3 10 μM

Antagonism of the compound's TESLR activity by sudemycinol C (SF3B1)	IC50 (CLK1(h)) [nM]	IC50 (SRPK1(h)) [nM]	inhibition at 1 µM (CK2α2 (h)) [%]	inhibition at 1 µM (MAPK1 (h)) [%]	IC50 (SRPK3 (h)) [nM]	inhibition at 1 µM (MAPK2 (h)) [%]	inhibition at 1 µM (GSK3α(h)) [%]	inhibition at 1 µM (DYRK1A(h); 40 min, read-out: DYRK1A IC50) [%]	inhibition at 1 µM (SRPK2 (h)) [%]	IC50 (CLK2(h)) [nM]	inhibition at 1 µM (FAK (h)) [%]	inhibition at 1 µM (SRPK1(h); 40 min, read-out: SRPK1 IC50) [%]	inhibition at 1 µM (SRPK3 (h); 40 min, read-out: SRPK3 IC50) [%]	IC50 (DYRK1A(h)) [nM]	SMILES	RBM39 alternative splicing (AS) pattern by RT-PCR [1]	MDM2 alternative splicing (AS) pattern by RT-PCR [2]	Effect on phosphorylation of SR proteins (immunoblot) [3]
did not antagonize	27	170	< 50	< 50	189	< 50	< 50	< 50	< 50	6	< 50				Cc1nc(Nc2[nH]nc3c2CN(C(=O)N[C@H](CN(C)C)c2ccccc2)C3(C)C)c2sccc2n1 [Compound 2, PF-3758309]	transcript at 673 bp showing the greatest abundance	AS isoform of 785 bp was dominant	reduced phosphorylation of both SR and SF3B1 proteins significantly
did not antagonize	3		< 50	< 50		< 50	< 50		< 50	1	< 50	< 50	< 50	17	CNC(=O)c1nn(C)c2c1C(C)(C)Cc1cnc(Nc3ccc(N4CCN(C)CC4)cc3)nc1-2 [Compound 1, milciclib]	transcript at 673 bp showing the greatest abundance	AS isoform of 785 bp was dominant	reduced phosphorylation of both SR and SF3B1 proteins significantly
